# Reference: patent US9347934B2, “Assays for identifying compounds that modulate bitter taste” (CHROMOCELL CORPORATION, priority 2011, dated 2016)
# What was measured:
# Assay type in all cases: cell-based
# TAS2R50 = biological target: T1, TAS2R50 (Homo sapiens, UniProt P59544); assay: Calcium fluorescence functional assay, TAS2R50 cell line; settings: 20 mM tastant; cell line expressing human TAS2R50 and mouse Gα15
# T1 construct: expressed in transfected cells
# T1 sequence (P59544 1-299): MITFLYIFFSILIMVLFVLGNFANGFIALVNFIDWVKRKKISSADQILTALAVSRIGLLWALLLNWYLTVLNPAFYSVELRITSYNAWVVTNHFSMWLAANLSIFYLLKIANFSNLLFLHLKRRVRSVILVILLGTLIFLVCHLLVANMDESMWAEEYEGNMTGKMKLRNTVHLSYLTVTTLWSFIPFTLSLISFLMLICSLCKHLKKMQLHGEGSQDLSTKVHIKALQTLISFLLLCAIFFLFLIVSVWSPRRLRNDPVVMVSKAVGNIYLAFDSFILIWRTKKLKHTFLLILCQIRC
# Experimental: (§1) Accordingly, each cell line of the panel expressed a human bitter taste receptor and mouse Gα15 signaling protein.
# (§2) Probenecid was not included in the load solution.
# (§3) After dye loading, cell plates were placed in a fluorescent plate reader (e.g., FDSS6000 (Hamamatsu, Japan)) and receptor stimulation was measured by adding 50 ul of 3× concentrated ligand/agonist stock. Fluorescence was monitored continuously for 10 s before agonist addition and for 100-250 s after stimulation with agonist.
# (§4) Receptor Activation is defined as follows: % Activation=[((Maximum signal fluorescence−Minimum signal fluorescence)−(Maximum control fluorescence−Minimum control fluorescence))/(Maximum buffer fluorescence−Minimum buffer fluorescence)]*100 Functional Response=[(Maximum signal fluorescence−Minimum signal fluorescence)−(Maximum control fluorescence−Minimum control fluorescence)] • Signal Fluorescence: refers to the change in fluorescence seen with addition of ligand • Control fluorescence: refers to the change in fluorescence seen with addition of buffer (negative control) • Calcium signals from ligand and control were normalized to the basal fluorescence of the cells prior to the stimulation.
# (§5) A concentration analysis was performed and EC50 values were calculated by nonlinear regression using the formula: Y=Bottom+(Top-Bottom)/(1+10^((Log EC50-X)*Hill Slope)), X=log of dose or concentration, Y=Response (increasing as X increases), Top=maximum signal, Bottom=minimum signal.
# TAS2R9 = biological target: T2, TAS2R9 (Homo sapiens, UniProt Q9NYW1); assay: Calcium fluorescence functional assay, TAS2R9 cell line; settings: for TAS2R9 bitter taste receptor activity (changes in intracellular calcium): 20 mM tastant, cell line expressing human TAS2R9 and mouse Gα15
# T2 construct: expressed in transfected cells
# T2 sequence (Q9NYW1 1-312): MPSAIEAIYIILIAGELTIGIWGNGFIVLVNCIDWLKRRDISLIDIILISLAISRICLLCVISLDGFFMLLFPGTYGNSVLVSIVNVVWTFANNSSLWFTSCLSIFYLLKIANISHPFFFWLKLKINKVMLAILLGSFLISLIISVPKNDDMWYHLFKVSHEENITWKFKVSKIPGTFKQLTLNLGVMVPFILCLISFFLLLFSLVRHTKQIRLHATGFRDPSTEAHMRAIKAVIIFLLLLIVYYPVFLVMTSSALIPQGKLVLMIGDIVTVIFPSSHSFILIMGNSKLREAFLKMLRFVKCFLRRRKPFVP
# Experimental: as §1, §2, §3, §4, §5
# TAS2R41 = biological target: T3, TAS2R41 (Homo sapiens, UniProt P59536); assay: Calcium fluorescence functional assay, TAS2R41 cell line; settings: 20 mM tastant; cell line expressing human TAS2R41 and mouse Gα15
# T3 construct: expressed in transfected cells
# T3 sequence (P59536 1-307): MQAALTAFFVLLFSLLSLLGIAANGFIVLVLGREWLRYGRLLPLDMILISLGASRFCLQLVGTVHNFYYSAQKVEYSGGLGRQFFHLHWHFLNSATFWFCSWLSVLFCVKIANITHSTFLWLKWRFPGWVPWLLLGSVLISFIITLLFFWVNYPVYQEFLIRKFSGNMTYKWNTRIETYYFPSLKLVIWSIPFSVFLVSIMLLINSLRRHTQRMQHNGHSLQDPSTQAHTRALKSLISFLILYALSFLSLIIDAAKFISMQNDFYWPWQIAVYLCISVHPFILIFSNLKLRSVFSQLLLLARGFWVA
# Experimental: as §1, §2, §3, §4, §5
# TAS2R55 = biological target: T4, TAS2R55 (Homo sapiens, UniProt Q7RTR8); assay: Calcium fluorescence functional assay, TAS2R55 cell line; settings: 20 mM tastant; cell line expressing human TAS2R55 and mouse Gα15
# T4 construct: expressed in transfected cells
# T4 sequence (Q7RTR8 1-314): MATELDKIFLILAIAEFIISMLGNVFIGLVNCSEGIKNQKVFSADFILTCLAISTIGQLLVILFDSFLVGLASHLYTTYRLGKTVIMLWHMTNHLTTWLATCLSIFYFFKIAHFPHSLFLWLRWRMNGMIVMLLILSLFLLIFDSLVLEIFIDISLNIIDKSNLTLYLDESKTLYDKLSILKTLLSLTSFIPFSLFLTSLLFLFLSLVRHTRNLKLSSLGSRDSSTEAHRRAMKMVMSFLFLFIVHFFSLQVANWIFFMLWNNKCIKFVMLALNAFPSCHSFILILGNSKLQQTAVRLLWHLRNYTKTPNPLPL
# Experimental: as §1, §2, §3, §4, §5
# TAS2R40 = biological target: T5, TAS2R40 (Homo sapiens, UniProt P59535); assay: Calcium fluorescence functional assay, TAS2R40 cell line; settings: 20 mM tastant; cell line expressing human TAS2R40 and mouse Gα15
# T5 construct: expressed in transfected cells
# Experimental: as §1, §2, §3, §4, §5
# TAS2R46 = biological target: T6, TAS2R46 (Homo sapiens, UniProt P59540); assay: Calcium fluorescence functional assay, TAS2R46 cell line; settings: 20 mM tastant; cell line expressing human TAS2R46 and mouse Gα15
# T6 construct: expressed in transfected cells
# T6 sequence (P59540 1-309): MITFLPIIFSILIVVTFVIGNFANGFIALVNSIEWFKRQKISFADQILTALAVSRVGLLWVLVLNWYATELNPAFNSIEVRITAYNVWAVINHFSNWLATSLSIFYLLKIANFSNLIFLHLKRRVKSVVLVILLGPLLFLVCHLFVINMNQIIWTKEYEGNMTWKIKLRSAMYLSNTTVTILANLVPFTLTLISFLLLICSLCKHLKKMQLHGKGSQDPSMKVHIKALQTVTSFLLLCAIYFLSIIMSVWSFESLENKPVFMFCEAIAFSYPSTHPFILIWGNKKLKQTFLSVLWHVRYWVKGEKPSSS
# Experimental: as §1, §2, §3, §4, §5
# TAS2R44 = biological target: T7, TAS2R44 (Homo sapiens, UniProt P59538); assay: Calcium fluorescence functional assay, TAS2R44 cell line; settings: for TAS2R44 bitter taste receptor activity (changes in intracellular calcium): 20 mM tastant, cell line expressing human TAS2R44 and mouse Gα15
# T7 construct: expressed in transfected cells
# T7 sequence (P59538 1-309): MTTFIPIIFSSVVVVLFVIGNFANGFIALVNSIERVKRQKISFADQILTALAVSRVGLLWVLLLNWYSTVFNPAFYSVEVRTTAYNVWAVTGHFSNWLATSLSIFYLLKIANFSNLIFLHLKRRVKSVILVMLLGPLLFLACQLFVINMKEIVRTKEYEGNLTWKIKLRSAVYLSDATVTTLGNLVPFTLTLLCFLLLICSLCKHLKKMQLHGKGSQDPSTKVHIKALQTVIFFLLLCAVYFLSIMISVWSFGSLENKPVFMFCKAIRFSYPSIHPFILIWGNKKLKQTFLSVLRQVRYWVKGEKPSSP
# Experimental: as §1, §2, §3, §4, §5
# T5 sequence (P59535 whole entry): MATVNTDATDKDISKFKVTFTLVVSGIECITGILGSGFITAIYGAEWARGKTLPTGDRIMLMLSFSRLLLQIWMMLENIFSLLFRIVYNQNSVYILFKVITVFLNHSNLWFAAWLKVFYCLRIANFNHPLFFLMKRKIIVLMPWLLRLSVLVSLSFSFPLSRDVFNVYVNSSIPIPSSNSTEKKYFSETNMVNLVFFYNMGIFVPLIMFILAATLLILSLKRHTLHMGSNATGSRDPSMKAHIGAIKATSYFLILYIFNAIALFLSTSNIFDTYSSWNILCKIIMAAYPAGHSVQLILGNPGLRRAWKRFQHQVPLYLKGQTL
Structure (SMILES),TAS2R50 bitter taste receptor activity (changes in intracellular calcium) (TAS2R50),TAS2R9 bitter taste receptor activity (changes in intracellular calcium) (TAS2R9),TAS2R41 bitter taste receptor activity (changes in intracellular calcium) (TAS2R41),TAS2R55 bitter taste receptor activity (changes in intracellular calcium) (TAS2R55),TAS2R40 bitter taste receptor activity (changes in intracellular calcium) (TAS2R40),TAS2R46 bitter taste receptor activity (changes in intracellular calcium) (TAS2R46),TAS2R44 bitter taste receptor activity (changes in intracellular calcium) (TAS2R44),"EC50 (TAS2R9; increasing concentrations of KCl, TAS2R9 cell line (FIG. 3), read-out: EC50 value, activation of TAS2R9) [mM]","EC50 (TAS2R44; increasing concentrations of KCl, TAS2R44 cell line (FIG. 3), read-out: EC50 value, activation of TAS2R44) [mM]"
CC1=CC(=O)NS(=O)(=O)O1 [Acesulfame K],did not induce,induced,did not induce,did not induce,did not induce,did not induce,induced,,
"[Cl-].[K+] [KCl, potassium chloride]",did not induce,induced,did not induce,did not induce,did not induce,did not induce,induced,5 to 15,5 to 15
"CC(O)C(=O)[O-].[K+] (centres unmarked) [Potassium lactate, potassium lactate]",did not induce,induced,did not induce,did not induce,did not induce,induced,induced,,
